Data from PMC6328932, “Procaspase activating compound 1 controls tetracycline repressor-regulated gene expression system” (Bioscience Reports, 2019).

Experiments:
[1] = biological target: TetR (TetR(B), tetracycline repressor) (Escherichia coli, UniProt P04483); experiment: SPR, TetR immobilised on CMDH chip by EDC/NHS coupling; type: binding
TetR(B) = TetR(B) (Escherichia coli? (TetR(B) cDNA …, UniProt P04483 1-207)); experiment: EMSA; complex appears from 0.5 uM TetR with 0.5 uM tetO; no Dox; EMSA: 20 mM Tris-HCl pH 8.0, 50 mM NaCl, 1 mM MgCl2, 0.1 mM DTT, 15 min at room temperature; 8% PAGE in 90 mM Tris, 90 mM boric acid, 5 mM MgCl2; details: protein: recombinant; (cloned NdeI-XhoI; Ni-NTA purified); chain copies: 2; label: none (ethidium bromide stain); blunt
Chain of TetR(B) (Escherichia coli? (P04483 whole entry): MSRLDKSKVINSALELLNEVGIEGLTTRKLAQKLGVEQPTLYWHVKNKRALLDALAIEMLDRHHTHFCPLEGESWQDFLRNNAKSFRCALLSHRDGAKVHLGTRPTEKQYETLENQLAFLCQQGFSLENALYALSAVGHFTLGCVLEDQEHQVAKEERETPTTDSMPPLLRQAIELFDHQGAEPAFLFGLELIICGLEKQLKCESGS

Chain of TetR (TetR(B), tetracycline repressor) (P04483 whole entry, looked up): as the sequence (P04483 whole entry) above

Molecule | Kd [1] | binding result (TetR(B))
C=CCc1cccc(C=NNC(=O)CN2CCN(Cc3ccccc3)CC2)c1O [PAC-1] | 260 µM | –
tetO (dsDNA) DNA 1: CCTAATTTTTGTTGACACTCTATCATTGATAGAGTTATTTTACCACTC DNA 2: GAGTGGTAAAATAACTCTATCAATGATAGAGTGTCAACAAAAATTAGG | – | binds
